Reference: US20260048062A1, “FUSED AMINO PYRIMIDINE COMPOUNDS FOR TREATMENT OF PSYCHOSIS AND PSYCHOTIC DISORDERS” (Ovid Therapeutics Inc., priority 2024, published 2026)
pEC50: −log10 of the molar value.

What was measured:
[1] = target: T1, KCC2 (Homo sapiens, UniProt Q9H2X9); assay: FLIPR Tl+ flux assay, HEK-293 cells expressing KCC2; type: cell-based; details: saturating concentration of 3 μM, 1% BCD vehicle
T1 construct: expressed in transfected cells; host or cells: HEK-293 (ATCC CRL-1573), transient transfection
T1 sequence (Q9H2X9 1-1116 isoform Q9H2X9-2): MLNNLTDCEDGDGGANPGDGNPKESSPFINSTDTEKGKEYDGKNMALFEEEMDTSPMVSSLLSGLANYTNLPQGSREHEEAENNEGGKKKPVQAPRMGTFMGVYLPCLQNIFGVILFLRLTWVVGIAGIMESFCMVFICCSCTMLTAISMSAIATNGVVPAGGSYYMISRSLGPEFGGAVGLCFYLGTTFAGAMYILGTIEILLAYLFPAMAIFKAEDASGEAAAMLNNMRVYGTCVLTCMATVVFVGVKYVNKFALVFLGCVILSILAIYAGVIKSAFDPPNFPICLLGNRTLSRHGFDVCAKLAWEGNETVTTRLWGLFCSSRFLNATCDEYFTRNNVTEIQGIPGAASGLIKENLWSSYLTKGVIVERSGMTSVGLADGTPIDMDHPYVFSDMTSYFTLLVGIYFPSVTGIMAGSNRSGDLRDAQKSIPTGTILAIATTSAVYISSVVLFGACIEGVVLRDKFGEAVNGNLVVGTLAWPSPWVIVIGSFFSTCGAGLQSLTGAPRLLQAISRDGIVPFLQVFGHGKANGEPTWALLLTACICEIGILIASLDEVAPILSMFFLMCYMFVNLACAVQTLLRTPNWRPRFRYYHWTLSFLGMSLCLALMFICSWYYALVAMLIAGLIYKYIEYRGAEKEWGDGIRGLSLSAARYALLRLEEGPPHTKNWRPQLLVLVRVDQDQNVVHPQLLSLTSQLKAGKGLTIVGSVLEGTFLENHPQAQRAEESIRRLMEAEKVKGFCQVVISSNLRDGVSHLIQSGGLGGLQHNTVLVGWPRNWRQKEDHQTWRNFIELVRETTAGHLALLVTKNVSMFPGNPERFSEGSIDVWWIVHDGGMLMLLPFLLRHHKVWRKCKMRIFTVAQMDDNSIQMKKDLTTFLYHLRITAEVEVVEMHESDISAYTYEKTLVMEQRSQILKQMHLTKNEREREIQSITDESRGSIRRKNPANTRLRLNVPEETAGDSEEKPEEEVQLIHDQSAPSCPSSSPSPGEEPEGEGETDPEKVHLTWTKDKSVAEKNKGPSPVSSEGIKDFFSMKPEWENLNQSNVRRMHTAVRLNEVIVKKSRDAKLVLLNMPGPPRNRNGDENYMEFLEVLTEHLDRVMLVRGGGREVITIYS
Method: A multi-tiered high-throughput screening assay was used, leveraging a proprietary library of 1.3 million small molecule compounds from AstraZeneca (Cambridge, UK) to identify chemical entities capable of activating KCC2. A single point concentration of 30 μM was used to identify potassium flux using an established thallium (TI+) influx FLIPR assay as the primary read out in HEK-293 cells overexpressing KCC2 (Cardarelli et al., Nat. Med. 23, 1394-1396 (2017); Conway et al., J Biol Chem 292, 21253-21263 (2017); Lee et al., 2022, supra).
Cell Culture and biotinylation. […]
FLIPR TI Flux assay. HEK-293 cells were washed with HBSS, and then incubated with loading buffer containing TI sensitive fluorescent dye (https://www.moleculardevices.com), 20 μM bumetanide 20 μM ouabain and 2.5 mM probenecid for 1 h at room temperature (RT) under control conditions or with drugs in the dark using a FlexStation 3 microplate reader (Molecular Devices) and imaged […] for 30 min. Stimulus buffer was added containing 5 mM K^+/0.5 mM Tl^+ and cells were imaged every 1.5 over a 190 second time course The initial rate Tl^+ uptake (Relative Fluorescence Units (RFU) per second) was determined following addition of the stimulus buffer as outlined previously (Conway et al., 2017, supra) (Lee et al., 2022, supra). […]

[2] = target: T2, KCC4 (Homo sapiens, UniProt Q9Y666); assay: Tl+ flux assay, HEK-293 cells expressing KCC4; type: cell-based; details: read-out: concentration at which effects on KCC4 were seen
T2 construct: expressed in transfected cells; host or cells: HEK-293
T2 sequence (Q9Y666 1-1083): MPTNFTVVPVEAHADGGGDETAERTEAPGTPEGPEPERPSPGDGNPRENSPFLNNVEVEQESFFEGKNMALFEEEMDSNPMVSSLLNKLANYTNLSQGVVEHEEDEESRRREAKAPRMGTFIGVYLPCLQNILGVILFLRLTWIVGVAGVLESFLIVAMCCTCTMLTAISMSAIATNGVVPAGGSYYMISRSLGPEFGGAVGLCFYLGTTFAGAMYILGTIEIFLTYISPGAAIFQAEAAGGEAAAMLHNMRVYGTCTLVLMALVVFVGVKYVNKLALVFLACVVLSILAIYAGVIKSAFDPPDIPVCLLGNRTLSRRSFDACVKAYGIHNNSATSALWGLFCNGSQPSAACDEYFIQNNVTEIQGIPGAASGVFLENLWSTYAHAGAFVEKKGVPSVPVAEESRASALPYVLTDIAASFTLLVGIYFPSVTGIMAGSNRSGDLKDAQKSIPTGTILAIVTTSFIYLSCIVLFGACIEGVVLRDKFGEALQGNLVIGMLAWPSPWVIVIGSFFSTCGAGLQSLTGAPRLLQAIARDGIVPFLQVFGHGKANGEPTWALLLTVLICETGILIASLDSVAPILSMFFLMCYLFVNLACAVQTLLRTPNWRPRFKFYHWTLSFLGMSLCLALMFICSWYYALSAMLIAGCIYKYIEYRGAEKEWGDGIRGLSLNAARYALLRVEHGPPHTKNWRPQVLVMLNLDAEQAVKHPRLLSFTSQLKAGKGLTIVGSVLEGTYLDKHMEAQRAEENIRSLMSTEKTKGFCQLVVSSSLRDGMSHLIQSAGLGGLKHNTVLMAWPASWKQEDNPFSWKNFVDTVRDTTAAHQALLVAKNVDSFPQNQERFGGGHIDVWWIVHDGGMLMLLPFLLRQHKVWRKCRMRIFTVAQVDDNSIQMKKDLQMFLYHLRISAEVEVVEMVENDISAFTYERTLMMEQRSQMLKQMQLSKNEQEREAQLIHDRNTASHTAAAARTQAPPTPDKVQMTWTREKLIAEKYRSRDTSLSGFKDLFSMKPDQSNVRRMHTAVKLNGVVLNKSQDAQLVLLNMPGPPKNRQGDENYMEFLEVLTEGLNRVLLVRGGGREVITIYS
Method: FLIPR TI Flux assay. HEK-293 cells were washed with HBSS, and then incubated with loading buffer containing TI sensitive fluorescent dye (https://www.moleculardevices.com), 20 μM bumetanide 20 μM ouabain and 2.5 mM probenecid for 1 h at room temperature (RT) under control conditions or with drugs in the dark using a FlexStation 3 microplate reader (Molecular Devices) and imaged […] for 30 min. Stimulus buffer was added containing 5 mM K^+/0.5 mM Tl^+ and cells were imaged every 1.5 over a 190 second time course The initial rate Tl^+ uptake (Relative Fluorescence Units (RFU) per second) was determined following addition of the stimulus buffer as outlined previously (Conway et al., 2017, supra) (Lee et al., 2022, supra).
Compared to KCC2, effects on KCC3, KCC4, and NKCC1 were only seen at concentrations more than 35-fold that of KCC2 (>100 μM) (FIG. 1G).

C[C@@H]1CN(c2nc3c(c(Nc4ccc(C5CCCCC5)cc4)n2)COC3)CCO1 [Compound A, (R)—N-(4-cyclohexylphenyl)-2-(2-methylmorpholino)-5,7-dihydrofuro[3,4-d]pyrimidin-4-amine]
maximum potentiation of KCC2 [1]: 90% | pEC50 [2]: < 4.00
